The source made the active and inactive calls. The calls are words filed in the database; no cut-off is given here.
Key:
[1] = biological target: T1, Nucleotide-binding oligomerization domain-containing protein 1 (Mus musculus) (UniProt Q8BHB0); assay: Antagonist activity at NOD1 in mouse BMDM cells assessed as decrease in phosphorylated p65 level at 0.1 to 1 uM incubated for 1 hr followed by C12-iE-DAP stimulation for 30 mins by Western blot analysis; format: cell-based; details: filed as antagonist, dose 0.1-1 µM, time 1.5 hrs
T1 sequence (whole entry): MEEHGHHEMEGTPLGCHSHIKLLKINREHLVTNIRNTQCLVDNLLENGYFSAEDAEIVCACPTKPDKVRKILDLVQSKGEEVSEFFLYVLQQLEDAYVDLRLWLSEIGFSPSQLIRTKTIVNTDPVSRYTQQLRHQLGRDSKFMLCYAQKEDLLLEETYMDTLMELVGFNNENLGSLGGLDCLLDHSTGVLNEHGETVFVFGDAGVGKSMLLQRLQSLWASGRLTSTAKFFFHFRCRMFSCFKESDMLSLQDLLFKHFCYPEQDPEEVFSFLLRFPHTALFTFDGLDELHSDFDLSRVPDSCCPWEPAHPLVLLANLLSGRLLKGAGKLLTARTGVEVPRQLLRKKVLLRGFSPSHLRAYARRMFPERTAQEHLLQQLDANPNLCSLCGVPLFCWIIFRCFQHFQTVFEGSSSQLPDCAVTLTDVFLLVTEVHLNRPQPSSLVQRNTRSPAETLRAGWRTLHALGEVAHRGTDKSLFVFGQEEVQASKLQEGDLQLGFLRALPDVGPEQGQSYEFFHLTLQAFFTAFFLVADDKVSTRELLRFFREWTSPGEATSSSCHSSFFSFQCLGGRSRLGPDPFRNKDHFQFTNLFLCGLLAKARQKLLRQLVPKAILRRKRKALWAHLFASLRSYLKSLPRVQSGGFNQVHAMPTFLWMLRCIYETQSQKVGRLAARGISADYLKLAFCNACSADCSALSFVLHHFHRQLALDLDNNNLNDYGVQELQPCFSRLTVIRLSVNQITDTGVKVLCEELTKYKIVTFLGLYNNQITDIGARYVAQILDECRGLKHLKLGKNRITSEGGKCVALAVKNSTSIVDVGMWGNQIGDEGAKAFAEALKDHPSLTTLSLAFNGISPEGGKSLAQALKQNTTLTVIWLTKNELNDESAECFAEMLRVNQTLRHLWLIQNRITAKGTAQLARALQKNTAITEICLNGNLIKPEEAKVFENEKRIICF

[2] = AUC (infinity) in C57BL/6 mouse at 20 mg/kg, po by LC-MS/MS analysis; format: ADME, organism-based; details: in vivo
[3] = biological target: T1, Nucleotide-binding oligomerization domain-containing protein 1 (Mus musculus); assay: Antagonist activity at NOD1 in mouse BMDM cells assessed as decrease in phosphorylated p38 level at 0.1 to 1 uM incubated for 1 hr followed by C12-iE-DAP stimulation for 30 mins by Western blot analysis; format: cell-based; details: filed as antagonist, dose 0.1-1 µM, time 1.5 hrs
AGS = assay: Anti-inflammatory activity in human AGS cells assessed as decrease in CXCL8 mRNA level at 1 to 5 uM pretreated for 1 hr followed by infection with Helicobacter pylori for 2 hrs by RT-qPCR analysis; format: functional, cell-based; details: dose 1-5 µM, time 3.0 hrs
[4] = Cmax in C57BL/6 mouse at 2 mg/kg, iv by LC-MS/MS analysis; format: ADME, organism-based; details: in vivo
BMDM = assay: Anti-inflammatory activity in mouse BMDM cells assessed as decrease in TNF-alpha mRNA level at 1 to 5 uM pretreated for 1 hr followed by infection with Helicobacter pylori for 2 hrs by RT-qPCR analysis; format: functional, cell-based; details: dose 1-5 µM, time 3.0 hrs
[5] = biological target: T1, Nucleotide-binding oligomerization domain-containing protein 1 (Mus musculus); assay: Antagonist activity at NOD1 in mouse BMDM cells assessed as decrease in phosphorylated JNK level at 0.1 to 1 uM incubated for 1 hr followed by C12-iE-DAP stimulation for 30 mins by Western blot analysis; format: cell-based; details: filed as antagonist, dose 0.1-1 µM, time 1.5 hrs
[6] = biological target: T2, Nucleotide-binding oligomerization domain-containing protein 1 (Homo sapiens) (UniProt Q9Y239); assay: Antagonist activity at NOD1 in human THP-1 cells assessed as decrease in phosphorylated p38 level at 0.1 to 1 uM incubated for 1 hr followed by C12-iE-DAP stimulation for 30 mins by Western blot analysis; format: cell-based; details: filed as antagonist, dose 0.1-1 µM, time 1.5 hrs
T2 sequence (whole entry): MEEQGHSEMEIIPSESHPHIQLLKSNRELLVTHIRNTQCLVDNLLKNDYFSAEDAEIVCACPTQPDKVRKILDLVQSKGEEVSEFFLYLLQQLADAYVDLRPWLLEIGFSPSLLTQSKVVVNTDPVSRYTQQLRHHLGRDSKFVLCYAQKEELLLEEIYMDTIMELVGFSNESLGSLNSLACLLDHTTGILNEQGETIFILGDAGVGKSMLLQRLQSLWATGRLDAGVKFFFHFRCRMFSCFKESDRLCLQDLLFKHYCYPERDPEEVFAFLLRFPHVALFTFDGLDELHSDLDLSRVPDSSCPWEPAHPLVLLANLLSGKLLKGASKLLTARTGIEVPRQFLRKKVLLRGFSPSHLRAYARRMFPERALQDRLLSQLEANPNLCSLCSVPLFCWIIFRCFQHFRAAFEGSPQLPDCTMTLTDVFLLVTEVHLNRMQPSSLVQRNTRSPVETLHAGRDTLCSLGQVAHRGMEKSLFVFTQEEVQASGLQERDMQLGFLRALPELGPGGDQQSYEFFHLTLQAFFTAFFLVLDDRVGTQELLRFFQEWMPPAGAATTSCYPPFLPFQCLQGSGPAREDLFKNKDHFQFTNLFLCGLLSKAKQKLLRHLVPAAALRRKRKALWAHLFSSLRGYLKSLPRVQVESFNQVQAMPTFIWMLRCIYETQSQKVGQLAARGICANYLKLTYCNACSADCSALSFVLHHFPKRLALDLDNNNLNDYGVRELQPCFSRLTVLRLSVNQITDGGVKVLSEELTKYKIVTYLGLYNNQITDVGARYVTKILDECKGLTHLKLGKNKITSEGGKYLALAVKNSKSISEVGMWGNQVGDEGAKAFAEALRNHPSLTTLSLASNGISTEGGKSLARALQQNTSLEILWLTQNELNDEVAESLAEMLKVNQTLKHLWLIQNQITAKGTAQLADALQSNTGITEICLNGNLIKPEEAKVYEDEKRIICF

Mus musculus = assay: Anti-inflammatory activity in C57BL/6 mouse assessed as inhibition in serum keratinocyte chemoattractant level at 12.5 to 50 mg/kg, po pretreated with compound for 15 mins followed by C12-iE-DAP administration measured after 2 hrs by ELISA relative to control; format: functional; details: dose 12.5-50 mg/kg, time 135 min, 2.25 h
[7] = biological target: T2, Nucleotide-binding oligomerization domain-containing protein 1 (Homo sapiens); assay: Antagonist activity at NOD1 in human THP-1 cells assessed as decrease in phosphorylated JNK level at 0.1 to 1 uM incubated for 1 hr followed by C12-iE-DAP stimulation for 30 mins by Western blot analysis; format: cell-based; details: filed as antagonist, dose 0.1-1 µM, time 1.5 hrs
[8] = Anti-inflammatory activity in mouse BMDM cells assessed as decrease in IL-6 mRNA level at 0.1 uM pretreated for 1 hr followed by C12-iE-DAP stimulation for 2 hrs by RT-qPCR analysis relative to control; format: functional; set-up: scale not given: the % may be the effect or the level left; details: time 3 hrs
[9] = biological target: T3, Nucleotide-binding oligomerization domain-containing protein 1 (Mus musculus, UniProt Q8BHB0); assay: Antagonist activity at mouse NOD1 expressed in HEK293 cells assessed as decrease in NF-kappaB activation; format: cell-based
T3 sequence (Q8BHB0 whole entry): T1 sequence (whole entry)

inhibition [1]: Active
AUC(0-inf) [2]: 35.9 ng·h/mL
inhibition [3]: Active
Cmax [4]: 234 ng/mL
inhibition [5]: Active
inhibition [6]: Active
inhibition [7]: Active
IC50 [9]: 32 nM
Structure (SMILES): CS(=O)(=O)c1ccc2nc(Cl)n(-c3ccc(Cl)c(NS(=O)(=O)c4c(F)cccc4F)c3)c(=O)c2c1
Activity (AGS): Active
Activity (BMDM): Active
inhibition (INH) (Mus musculus): ~77%
Activity [8]: ~100%

From ChEMBL document CHEMBL6074678, “Selectively Antagonizing the NOD1-Mediated Inflammatory Signaling Pathway Mitigates the Gastric Inflammation Induced by Helicobacter pylori Infection” (J Med Chem, 2024)
